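How tested: cells in 96-well plates exposed to compound for 48 hours at five concentrations. Here, GI50 denotes the concentration required for 50% inhibition of growth. TGI marks complete inhibition of growth.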
What was measured:
Assay in all cases: DTP human tumour cell line panel, 48 h
UO-31 renal = tested on: UO-31 renal
MDA-N = tested on: MDA-N
COLO 205 colon = tested on: COLO 205 colon
SK-MEL-2 melanoma = tested on: SK-MEL-2 melanoma
LOX IMVI melanoma = tested on: LOX IMVI melanoma
ACHN renal = tested on: ACHN renal
SF-295 CNS = tested on: SF-295 CNS
MDA-MB-231 breast = tested on: MDA-MB-231 breast
HT29 colon = tested on: HT29 colon
NCI-H226 lung = tested on: NCI-H226 lung

Compound	TGI (UO-31 renal) [µM]	TGI (MDA-N) [µM]	TGI (COLO 205 colon) [µM]	TGI (SK-MEL-2 melanoma) [µM]	TGI (LOX IMVI melanoma) [µM]	TGI (ACHN renal) [µM]	TGI (SF-295 CNS) [µM]	TGI (MDA-MB-231 breast) [µM]	TGI (HT29 colon) [µM]	TGI (NCI-H226 lung) [µM]	GI50 (NCI-H226 lung) [µM]	GI50 (SK-MEL-2 melanoma) [µM]	GI50 (LOX IMVI melanoma) [µM]	GI50 (ACHN renal) [µM]	GI50 (SF-295 CNS) [µM]	GI50 (UO-31 renal) [µM]	GI50 (HT29 colon) [µM]	GI50 (COLO 205 colon) [µM]	GI50 (MDA-MB-231 breast) [µM]
COc1ccc(/C=C2\S/C(=N/Nc3nc(-c4ccccc4)cs3)NC2=O)cc1OC	51.7	33.7	> 100	47.5	65.6	> 100	86.3	75.7											
COc1ccc(C2=NN(c3ccccc3)C[N+](c3ccc(OC)cc3)=N2)cc1	71.1				61.9	> 100	> 100		> 100	64.6									
Cc1cn(Cc2cnnn2CC2OC(n3cc(C)c(=O)[nH]c3=O)CC2O)c(=O)[nH]c1=O (stereo unspecified)	> 100	> 100	> 100	> 100	> 100	> 100	> 100	> 100		> 100									
CC1(c2ccc[n+](Cc3ccccc3)c2)OCCO1	> 100		> 100	> 100	> 100	> 100	> 100		> 100	> 100									
COC(=O)C(CSSC[C@H](N/C(C)=C/C(C)=O)C(=O)OC)N/C(C)=C/C(C)=O (stereo partly specified)	> 100	> 100	> 100	> 100	39.7	17.1	> 100	> 100	> 100	> 100									
c1cn(C23C4C5C6C4C2C6C53)cn1 (stereo unspecified)		> 100	> 100	> 100	> 100	> 100	> 100	> 100	> 100	> 100									
O=C(c1cc(Cl)ccc1Cl)N1CCN(C(=O)c2cc(Cl)ccc2Cl)CC1	> 100	> 100			> 100	> 100	> 100	> 100	> 100	> 100									
O=C(Nc1ccccc1)N(CCCCN(Cc1ccccc1)C(=O)Nc1ccccc1)Cc1ccccc1	> 100	> 100	> 100	> 100	> 100	> 100	> 100	> 100	> 100	> 100									
COC1OC2COC1(OC)C1OC(C)(C)OC21 (stereo unspecified)	> 100	> 100	> 100	> 100		> 100	> 100	> 100	> 100	> 100									
CCOC(=O)c1cc2c(C(=O)c3ccc([N+](=O)[O-])cc3)c(C(C)=O)ccc2[nH]1	> 100	> 100	> 100	> 100	> 100	> 100	> 100	53.4	> 100	> 100									
N#Cc1c(-c2ccc(Cl)cc2)c2c(n(C3OC(CO)C(O)C(O)C3O)c1=S)CCC2 (stereo unspecified)	> 100	> 100	63.8	> 100	34.3	> 100		> 100	> 100										
O=c1c2cc(I)ccc2nc(-c2cccs2)n1-c1ccc(O)cc1	25.4	62.8	36.1	29.9	28.5	22.5	27.4		27.1	35.9									
COC(=O)C(Cc1ccccc1)NP(=O)(O)OCC1OC(n2cc(F)c(=O)[nH]c2=O)CC1O (stereo unspecified)	> 100	> 100	> 100	> 100	> 100	> 100	> 100	> 100	> 100	> 100									
Nc1ccccc1CC(O)C(=O)O (stereo unspecified)		> 100	> 100		> 100	> 100	> 100	> 100	> 100	> 100									
COc1ccc(C(=O)/C=C/c2c(Cl)c3c(c(OC)c2Cl)OCC(=O)N3)cc1				5.94	2.88	3.64	32.7			> 100	7.08	2.19	1.36	1.79	3.23				
O=c1[nH]nc(-c2ccccc2)n1/N=C/c1cccnc1	> 100	> 100			> 100	> 100	> 100	> 100	> 100	> 100									
C(CCCCc1nnc(N2CCCCC2)o1)CCCc1nnc(N2CCCCC2)o1	> 100		> 100	> 100	> 100	> 100	> 100	> 100	> 100	> 100									
COc1ccc(C2N(NC(=O)c3ccncc3)C(=O)CS2(=O)=O)cc1F (stereo unspecified)			> 100	> 100	> 100	> 100	> 100		> 100	> 100									
COc1ccc(-c2cc(-c3ccc(Nc4ccnc5cc(Cl)ccc45)cc3)[nH]c(=O)c2C#N)c2ccccc12	15.2	6.02	6.89	> 100		> 100	> 50.1	51.1		> 100									
CCOC(=O)Cc1cc(OC)c(OC)cc1/C(Cl)=C(\C=O)c1ccc(OC)c(OC)c1	85.3		50.6	62.9	36.4	55.6	29		29.2										
O=C1c2cc3c(cc2CC12Cc1ccc4c(c1C2=O)CCCC4)CCCC3 (stereo unspecified)	> 100	> 100		> 100	> 100	> 100	> 100	> 100	> 100										
COc1cc2c(cc1OC)C(Cl)C(c1ccc(Cl)c(Cl)c1)=C2Cl (stereo unspecified)	24.8		28	21.3	5.75	21.8	22		12.2	23.9									
OC(CCNCc1ccccc1)c1ccc2ccccc2c1 (stereo unspecified)	32.3		47.2	38.9	27.2	41.5	63.9	35.3	61.7	46.7									

Compound	TGI (UO-31 renal) [µM]	TGI (MDA-N) [µM]	TGI (COLO 205 colon) [µM]	TGI (SK-MEL-2 melanoma) [µM]	TGI (LOX IMVI melanoma) [µM]	TGI (ACHN renal) [µM]	TGI (SF-295 CNS) [µM]	TGI (MDA-MB-231 breast) [µM]	TGI (HT29 colon) [µM]	TGI (NCI-H226 lung) [µM]	GI50 (NCI-H226 lung) [µM]	GI50 (SK-MEL-2 melanoma) [µM]	GI50 (LOX IMVI melanoma) [µM]	GI50 (ACHN renal) [µM]	GI50 (SF-295 CNS) [µM]	GI50 (UO-31 renal) [µM]	GI50 (HT29 colon) [µM]	GI50 (COLO 205 colon) [µM]	GI50 (MDA-MB-231 breast) [µM]
COc1ccc(-c2c(C#N)c(S)n(NS(=O)(=O)c3ccc(C)cc3)c(=O)c2C#N)cc1		37.5	44.6	32.1	29.8	41.3	> 100	42.7	> 100	89.5									
O=C(Cn1c(C(=O)/C=C/c2cccs2)nc2ccccc21)c1ccc(Cl)cc1	69.6	56.7	38.3	20.8	27.3	> 100		46	56.9	> 100									
COc1ccc(C)cc1Nc1nnc(-c2ccccc2N)s1	> 100	> 100	> 100	52.3	> 100	> 100	> 100		> 100	> 100									
COc1ccc(-c2cc(-c3cc4cc(Br)ccc4nc3Cl)c(C#N)c(N)n2)cc1	> 12.5	> 12.5	> 12.5	> 12.5	> 12.5		> 12.5		> 12.5	> 12.5									
COC(=O)[C@H]1CO[C@H]2C/C(C)=C/CC/C(C)=C/CC[C@@]3(C)O[C@@H]3C[C@H]21	> 50		22.6	> 50		> 50	> 50	40.6	> 50	29.2									
CCNC(=O)c1cc(/C=C/c2ccc([N+](=O)[O-])o2)nc2ccccc12	> 100		> 84.2	16.6	> 100	> 100	> 100	> 100	> 100	> 100									
CCOC(=O)C(NC(=O)CC)(Nc1cc(C)on1)C(F)(F)F (stereo unspecified)	> 100	> 100	> 100	> 100	> 100	> 100			> 100										
C=C(C)C(O)C(O)c1c(OC)ccc2ccc(=O)oc12 (stereo unspecified)	> 100	> 100	> 100	> 100		> 100	> 100	> 100	> 100	> 100									
COc1ccccc1NC(=O)CC(=O)N1N=C(C)C(N=Nc2ccc(C(=O)O)cc2)C1=O (stereo unspecified)	> 100	> 100	> 100	> 100	> 100	> 100	> 100	> 100	> 100										
NNC(=O)Cn1c2ccc(Br)cc2c2nc3ccccc3nc21	> 100	> 100	> 100	> 100		> 100	> 100	> 100	> 100	> 100									
Cc1ccc2c(c1C)C(=O)/C(=C/c1ccccc1C(=O)O)C2	> 100	> 100	> 100	> 100	> 100	> 100	> 100		> 100	> 100									
C/C(Nc1ccc(F)cc1)=C1/CCOC1=O	> 100		47		> 100	> 100	> 100	> 100	> 100	> 100									
Oc1c([Si](c2ccccc2)(c2ccccc2)c2ccccc2)cc2ccccc2c1-c1c(O)c([Si](c2ccccc2)(c2ccccc2)c2ccccc2)cc2ccccc12	> 100	> 100	> 100	> 100	> 100	> 100	> 100	> 100	> 100										
Cc1cc(N2CCCC2)nc(N(CCNc2ccnc3cc(Cl)ccc23)Cc2ccco2)n1	39.8		4.38	> 100	10.4	> 100	16.1	23.7	> 100	> 100	3.2	18	2.66	6.53	2.07	2.58	1.68	1.8	3.14
CCOP(=O)(OCC)C1CC(n2cc(C)c(=O)[nH]c2=O)OC1CO (stereo unspecified)	> 100	> 100		> 100	> 100	> 100	> 100	> 100	> 100	> 100									
COc1cc(C(C)c2cc3c(cc2OCCO)OCO3)cc(OC)c1OC (stereo unspecified)	> 100		7.47	> 100	> 100	> 100	2.24		> 100	> 100									
CN(C)c1nc2oc(-c3ccccc3)c(-c3ccccc3)c2c2nnnn12	> 100		> 100		> 100	> 100	> 100	> 100	> 100	> 100									
CCCCCC(C)SC1(C(=O)OC)CC(OC(C)=O)C(NC(C)=O)C([C@H](OC(C)=O)[C@@H](COC(C)=O)OC(C)=O)O1 (stereo partly specified)	> 100	> 100		64.4		> 100	> 100	> 100	> 100	> 100									
CC(C)(Oc1ccc(Cl)cc1)C(=O)N(C(=O)N1CCC(c2ccccc2)CC1)c1ccccc1	> 100		> 62.5	> 100	> 100	> 100	> 100	> 100	> 100	> 100									
C[C@@H]1CC[C@H]2C(C(O)CCCCC(O)C3=C(C(F)(F)F)O[C@@H]4O[C@@]5(C)CC[C@H]6[C@H](C)CC[C@@H]3[C@@]46OO5)=C(C(F)(F)F)O[C@@H]3O[C@@]4(C)CC[C@@H]1[C@]32OO4 (stereo partly specified)	> 100		29.4	> 100	11.8	> 100	> 100	> 100	> 100	> 100	33.6	> 100	3.12	13.9	53.7	10.2	13.6	8.04	16.2
CN(C(=O)c1ccco1)C(=S)N1CCN(c2ccccc2)CC1	> 100		> 100	> 100	> 100	> 100	> 100		> 100	> 100									
COc1ccc(C(=O)Cc2ccc(Br)cc2)cc1OC	> 100			> 100	> 100	> 100	> 100		> 100	> 100									

From PubChem BioAssay (NCI)
